Data set [1] is described as follows: solubility limit in feeding solution.
Data set [2] addresses AnKir1 (Anopheles gambiae, UniProt A0A075M2J8). The data set is described as follows: thallium (Tl+) flux assay. The data set is classed as cell-based. Here is the method: The thallium flux assay is an in vitro method of measuring conductance through a potassium ion channel. Potassium channels are also permeable to thallium ions. The modulation of a K^+ channel will thus increase or decrease thallium ion flow through the channel and thus, alter the observed fluorescence of a thallium-specific indicator dye.
After 1 hr incubation at room temperature, the dye-loading solution was washed from the plates and replaced with 20 μL/well of assay buffer. The plates were transferred to a Hamamatsu Functional Drug Screening System 6000 (FDSS6000; Hamamatsu, Tokyo, Japan), where 20 μL/well of each of the test compounds in assay buffer was added and allowed to incubate with the cells for 20 min. After incubation, a baseline recording was collected at 1 Hz for 10 s (excitation 470±20 nm, emission 540±30 nm); a thallium stimulus buffer was then added (10 μL/well), and data were then collected for an additional 4 min. […] To ensure the small-molecule vehicle DMSO had no direct effect on AnKir1-dependent Tl^+ flux, the assay's tolerance to different doses of DMSO was evaluated. The robustness and reproducibility of the assay was determined by comparing Tl^+ flux through tetracycline-induced and tetracycline-free cells. The Z′ value was calculated as:
Z′=1−(3SDp+3SDn)/|meanp+meann| where SD is standard deviation, and p and n are control and uninduced flux values, respectively. To compare the effect of DMSO on AnKir1-mediated Tl^+ flux, a one-way ANOVA was performed with a Tukey's multiple comparison test. Prism software (GraphPad Software) was used to generate CRC from Tl^+ flux. Half-inhibition concentration (IC50) values were calculated from fits using a four parameter logistic equation.
Test compounds were transferred to daughter, 384-well polypropylene plates (Greiner Bio-One, Monroe, N.C.) with an Echo555 liquid handler (Labcyte, Sunnyvale, Calif.), and then diluted into assay buffer to generate a 2× stock in 0.6% DMSO (0.3% final). […] Concentration-response curves (CRCs) were generated by screening compounds at 3-fold dilution series (1 nM-30 μM).
Tl^+ flux data were analyzed using Excel (Microsoft Corp, Redmond, Wash.) with XLfit add-in (IDBS, Guildford, Surrey, UK), OriginPro (Origin Lab, Northampton, Mass.), and GraphPad Prism (GraphPad Software, San Diego, Calif., USA) software. Raw data were opened in Excel and each data point in a given trace was divided by the first data point from that trace (static ratio) followed by subtraction of data points from control traces generated with vehicle controls. The slope of the fluorescence increase beginning 5 s after Tl^+ addition and ending 15 s after Tl^+ addition was calculated.
To perform Tl+ flux assays, stably transfected T-Rex-HEK-293 cells expressing AnKir1 channels were cultured overnight in 384-well plates (20,000 cells/20 μL/well), black-walled, clear-bottomed BD Pure Coat amine-coated plates (BD, Bedford, Mass.) with a plating media containing DMEM, 10% dialyzed FBS and 1 μg/mL tetracycline. […] Following 1 hr incubation at room temperature, the dye-loading solution was washed from the plates and replaced with 20 μL/well of assay buffer.

The test system of data set [3] is Aphis gossypii. The data set is described as follows: aphid feeding on treated cotton leaves, electrophenegraph technique. The data set is classed as in vivo. The conditions noted are these: barium chloride at 300 micromolar. The method, then:
FIGS. 14(A) and (B) depict measurements of aphid (Aphis gossypi) feeding on cotton leaves, as measured through the electrophenegraph technique; on control leaves and on leaves treated with the Kir inhibitor barium, respectively.
In aphids, a specific Kir channel blocker (barium chloride at 300 micromolar) was coated onto leaf tissue, and the feeding behavior of the adult aphid was analyzed through the classical electrophenegraph technique.

Data set [4] has as its system An. gambiae. Description: mosquito fecundity, eggs laid. Format: in vivo, Anopheles gambiae. The conditions noted are these: 72 h post blood feeding; VU041 ~1 μg/mg, VU937 ~10 μg/mg. The method, then:
Briefly, adult female mosquitoes were given access to an anesthetized mouse for 60 min. […] After treatment, individual female mosquitoes were transferred to Drosophila vials (Fisher Scientific, Pittsburgh, OA) containing 2 mL of water. The total number of eggs was counted 72 hours after each mosquito was transferred into a vial. Any mosquitoes that died during this 72-hour period were excluded from the analysis. All assays were performed in an environmental chamber that was maintained at 27° C. and 75% relative humidity; mosquitoes were given access to 10% sucrose solution ad libitum. At least 25 female mosquitoes were used per replicate for each treatment group; each treatment was repeated on three separate broods, giving a total number of individuals from 75-113 for each group.

In data set [5] the target is AeKir1 (Aedes aegypti, UniProt L0EQS9). Description: thallium (Tl+) flux assay. The data set is classed as cell-based. The conditions noted are these: means (n = 3); read-out: IC50 μM (95% Cl).
AeKir1, sequence (L0EQS9 1-486): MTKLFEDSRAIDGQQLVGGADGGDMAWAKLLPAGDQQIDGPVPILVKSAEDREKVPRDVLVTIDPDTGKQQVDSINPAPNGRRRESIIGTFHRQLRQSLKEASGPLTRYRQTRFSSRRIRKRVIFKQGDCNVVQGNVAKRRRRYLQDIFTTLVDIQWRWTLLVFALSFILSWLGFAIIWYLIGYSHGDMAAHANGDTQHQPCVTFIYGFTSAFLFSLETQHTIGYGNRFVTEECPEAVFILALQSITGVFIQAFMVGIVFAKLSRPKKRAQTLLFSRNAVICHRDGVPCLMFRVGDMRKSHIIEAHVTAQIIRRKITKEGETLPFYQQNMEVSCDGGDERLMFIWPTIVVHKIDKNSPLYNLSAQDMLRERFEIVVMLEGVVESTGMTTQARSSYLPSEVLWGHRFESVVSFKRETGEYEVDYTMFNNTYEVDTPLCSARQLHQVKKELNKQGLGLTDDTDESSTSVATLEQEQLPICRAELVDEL
Data set [6] deals with hKir2.1 (Homo sapiens (Human), UniProt P63252). Description: thallium (Tl+) flux assay. The data set is classed as cell-based.
hKir2.1, sequence (P63252 whole entry): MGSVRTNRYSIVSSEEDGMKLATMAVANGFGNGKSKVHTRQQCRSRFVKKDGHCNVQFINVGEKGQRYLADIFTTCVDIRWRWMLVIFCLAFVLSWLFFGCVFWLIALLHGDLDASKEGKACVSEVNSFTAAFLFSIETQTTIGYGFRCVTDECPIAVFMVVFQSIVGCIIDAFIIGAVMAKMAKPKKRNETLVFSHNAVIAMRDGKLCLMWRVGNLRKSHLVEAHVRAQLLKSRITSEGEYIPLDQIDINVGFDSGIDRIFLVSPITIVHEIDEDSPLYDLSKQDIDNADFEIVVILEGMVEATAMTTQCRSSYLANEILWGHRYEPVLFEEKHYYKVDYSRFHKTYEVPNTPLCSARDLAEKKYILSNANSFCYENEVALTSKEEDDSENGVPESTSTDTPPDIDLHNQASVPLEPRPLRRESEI
Data set [7] concerns honey bees (Apis mellifera). The data set is described as follows: acute topical toxicity in adult honey bees. Format: in vivo. The conditions noted are these: 48 h, VU041 1 mg/bee (~10 μg/mg), bifenthrin 0.1 μg/bee. Here is the method: Frames of late-stage honeybee (A. mellifera) pupae were taken from four colonies at The Ohio State University Honey Bee Lab in Wooster, Ohio, and maintained in a dark humid incubator at 34° C. (Darwin Chambers Co., St. Louis, Mo., model H024) until adult bees emerged. New adults were brushed from frames daily, placed in wooden screen cages (21×14×12 cm), and provided with 1:1 (w/w) sucrose in water.
Acute toxicity experiments in adult bees were performed as follows: Twenty-four hours after emergence, adult honey bees in cages were anaesthetized with carbon dioxide, divided into groups of approximately 20 bees each, and placed in plastic-coated paper cups (177 cm^3; UNIQ Paper Yogurt Cup, Frozen Dessert Supplies, Gilbert, Ariz.) covered with cotton cheesecloth. […] As a positive control, some bees were treated with 3 μl of bifenthrin (0.1 μg/μl). Negative control bees were treated with 3 μl of solvent. Applications were made using a 20 μl micropipette (Fisherbrand Finnpipette F2, Fisher Scientific, Pittsburgh, Pa.) with a disposable plastic tip. […] Toxicity to honey bees was recorded at 48 h, rather than the 24 h used for mosquitoes, to allow for the possibility of delayed toxicity due to the larger body size of the bee. Bees showing no movement 48 h after treatment were scored as dead.

The subject of data set [8] is isolated tick salivary gland. Description: fluid secretion (salivation) in the isolated tick salivary gland, modified Ramsay assay. Also noted: species or system Amblyomma americanum. The conditions noted are these: isolated tick salivary gland.
The subject of data set [9] is mosquitoes. Description: topical toxicity to mosquitoes (species not specified). Format: in vivo. The conditions noted are these: dose of 10 μg per mg; within 24 h.
Data set [10] has as its system isolated tick salivary gland. The data set is described as follows: ion secretion in saliva of the isolated tick salivary gland. Also noted: species or system Amblyomma americanum.
Setting [11] is: means (n = 3), selectivity panel, read-out: IC50 μM (95% Cl).

Molecules are shown by their SMILES. In brackets after ≈: the same amount, converted by molar mass. Entries after “also recorded” stand apart in the source; their conditions may differ. Like-named read-outs stand apart in the source and are kept apart here.

AnKir1, sequence (A0A075M2J8 1-555): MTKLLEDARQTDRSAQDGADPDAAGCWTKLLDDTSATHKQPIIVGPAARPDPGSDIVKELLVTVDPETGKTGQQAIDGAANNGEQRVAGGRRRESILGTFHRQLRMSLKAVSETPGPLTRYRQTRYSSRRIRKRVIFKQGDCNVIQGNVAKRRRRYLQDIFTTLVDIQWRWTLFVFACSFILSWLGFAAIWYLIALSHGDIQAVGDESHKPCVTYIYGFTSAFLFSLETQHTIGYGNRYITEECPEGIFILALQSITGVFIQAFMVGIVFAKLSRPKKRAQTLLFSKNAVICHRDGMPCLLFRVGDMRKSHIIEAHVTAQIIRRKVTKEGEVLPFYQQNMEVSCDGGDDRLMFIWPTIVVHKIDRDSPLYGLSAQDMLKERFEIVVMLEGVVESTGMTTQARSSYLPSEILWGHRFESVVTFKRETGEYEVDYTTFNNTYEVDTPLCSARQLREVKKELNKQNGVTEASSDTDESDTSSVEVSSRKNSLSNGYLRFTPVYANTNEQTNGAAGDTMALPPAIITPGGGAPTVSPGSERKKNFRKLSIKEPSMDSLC

Take `O=C(Cn1nc(C(F)(F)F)c2c1CCCC2)NC1CCC1` [VU937]: in [1] (5% sucrose solution), the solubility limit stood at 700 µM (≈ 211 µg/mL). For the same molecule, the “AnKir1 IC50 (μM)” value in data set [2] (SAR libraries, listed as 18) is “inactive”; in data set [2] (SAR libraries, listed as Compound 18), “not tolerated”. Moreover, the “feeding phases (egestion, salivation, ingestion)” value in data set [3] was “fed normally; also recorded: did not affect feeding”.

The term IC50 denotes the concentration that gives 50% inhibition. The term solubility denotes the concentration that dissolves in the medium under given conditions. Higher therefore signals a readily soluble substance. As to `O=C(Cn1nc(C(F)(F)F)c2c1CCCC2)N1CCCc2ccccc21` [VU041, 1-(3,4-dihydroquinolin-1(2H)-yl)-2-(3-(trifluoromethyl)-4,5,6,7-tetrahydro-1H-indazol-1-yl)ethan-1-one], the “median number of eggs laid per mosquito” value in data set [4] is listed as “significantly lower median number of eggs per mosquito”. In addition, the IC50 in [5] came out at 1.7 µM; in [6] (SAR libraries, read-out: hKir2.1 IC50) it was 11.3 µM; in data set [6] (setting [11]) it was 12.7 µM; in data set [2] (SAR libraries, read-out: AnKir1 IC50), 2.3 µM; in [2] (setting [11]), 2.5 µM. In [7], the “mortality of adult honey bees” value was “did not cause significant mortality; also recorded: not toxic”. Also, the solubility in data set [1] (5% (wt/vol) sucrose solution, water) is 200 µM (≈ 72.7 µg/mL). Also, the “reduction of salivary output / saliva secretion compared to control” value in data set [8] is “approximately 60%”. Further, the “feeding phases (egestion, salivation, ingestion)” value in [3] was “No salivation was observed; also recorded: essentially completely inhibited egestion, salivation, and ingestion”. This molecule also gave a lethality against mosquitoes in data set [9] of about 100%. Also, the “K+ and Na+ ion secretion rates in salivary droplets” value in [10] is listed as “significantly reduced”.

Source of the values: US11632953B2, “Method for controlling hematophagous or sap-feeding arthropods” (Board of Supervisors of Louisiana State University and …, priority 2016, dated 2023).
